Results from patent US20040121398A1 (priority 2000, published 2004).

How the values were obtained:
VTII and Bcl-2 = experiment: Far Western blotting of VTII/Bcl-2 complex formation (B10 cell extract, biotinylated VTII); assay type: binding, human; settings: extract of Bcl-2-expressing B10 cells, biotinylated VTII, in the presence of NWGRI
B10 cells = assay type: cell-based, human

NWGRI
complex formation of VTII and Bcl-2 (VTII and Bcl-2): interrupted the complex formation of VTII and Bcl-2 in a dose dependent manner
induction of apoptotic cell death by VTII (B10 cells): suppressed
